Results: patent publication US20230295109A1, “PYRIDINONE COMPOUNDS FOR THE TREATMENT OF AUTOIMMUNE DISEASE” (F. Hoffmann-La Roche AG, priority 2020, published 2023)

target: T1, human TLR8 (Homo sapiens, UniProt Q9NR97); test: HEK293-Blue-hTLR-8 cells assay; format: cell-based; settings: HEK293-Blue-hTLR8 cells, R848 stimulation, 20 hrs, SEAP reporter; read-out: HEK/hTLR8 IC50
T1 construct: host or cells: HEK293 (HEK-Blue hTLR8)
T1 sequence (Q9NR97 27-1041): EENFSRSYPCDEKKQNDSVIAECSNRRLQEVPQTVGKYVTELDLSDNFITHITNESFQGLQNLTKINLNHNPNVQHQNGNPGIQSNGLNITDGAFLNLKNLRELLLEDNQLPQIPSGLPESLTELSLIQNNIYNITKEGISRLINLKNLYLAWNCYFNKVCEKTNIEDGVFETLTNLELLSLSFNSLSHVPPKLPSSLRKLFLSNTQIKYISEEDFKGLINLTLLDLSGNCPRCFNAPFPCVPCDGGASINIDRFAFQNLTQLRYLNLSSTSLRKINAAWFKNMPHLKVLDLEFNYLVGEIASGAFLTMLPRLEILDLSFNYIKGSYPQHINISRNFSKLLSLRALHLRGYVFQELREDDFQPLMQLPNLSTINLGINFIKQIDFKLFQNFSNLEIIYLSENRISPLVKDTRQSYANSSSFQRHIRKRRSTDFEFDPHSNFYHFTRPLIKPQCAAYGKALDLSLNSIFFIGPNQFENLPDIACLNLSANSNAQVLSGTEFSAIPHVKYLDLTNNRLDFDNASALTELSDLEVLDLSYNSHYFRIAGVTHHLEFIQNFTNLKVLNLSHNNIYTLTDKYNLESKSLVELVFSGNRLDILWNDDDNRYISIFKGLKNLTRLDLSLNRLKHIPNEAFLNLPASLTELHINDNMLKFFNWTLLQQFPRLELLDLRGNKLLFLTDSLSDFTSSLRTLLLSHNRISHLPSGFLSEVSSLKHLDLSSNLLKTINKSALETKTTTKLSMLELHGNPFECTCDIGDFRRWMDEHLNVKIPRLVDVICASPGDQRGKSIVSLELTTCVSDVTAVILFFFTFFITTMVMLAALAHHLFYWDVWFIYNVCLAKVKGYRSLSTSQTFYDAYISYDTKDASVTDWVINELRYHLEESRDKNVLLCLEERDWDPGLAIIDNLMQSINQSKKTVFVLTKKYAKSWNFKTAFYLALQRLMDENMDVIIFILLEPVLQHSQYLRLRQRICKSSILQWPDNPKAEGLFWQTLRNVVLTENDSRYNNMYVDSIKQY
Source text: A stable HEK293-Blue-hTLR-8 cell line was purchased from InvivoGen (Cat.#: hkb-htlr8, San Diego, California, USA). These cells were originally designed for studying the stimulation of human TLR8 by monitoring the activation of NF-κB. A SEAP (secreted embryonic alkaline phosphatase) reporter gene was placed under the control of the IFN-β minimal promoter fused to five NF-κB and AP-1-binding sites. The SEAP was induced by activating NF-κB and AP-1 via stimulating HEK-Blue hTLR8 cells with TLR8 ligands. Therefore the reporter expression was declined by TLR8 antagonist under the stimulation of a ligand, such as R848, for incubation of 20 hrs. The cell culture supernatant SEAP reporter activity was determined using QUANTI-Blue™ kit (Cat.#: rep-qb1, Invivogen, San Diego, Ca, USA) at a wavelength of 640 nm, a detection medium that turns purple or blue in the presence of alkaline phosphatase.
HEK293-Blue-hTLR8 cells were incubated at a density of 250,000~450,000 cells/mL in a volume of 170 µL in a 96-well plate in Dulbecco’s Modified Eagle’s medium (DMEM) containing 4.5 g/L glucose, 50 U/mL penicillin, […], […], 2 mM L-glutamine, 10% (v/v) heat-inactivated fetal bovine serum with addition of 20 µL test compound in a serial dilution in the presence of final DMSO at 1% and 10 µL of 60uM R848 in above DMEM, perform incubation under 37° C. in a CO2 incubator for 20 hrs. Then 20 µL of the supernatant from each well was incubated with 180 µL Quanti-blue substrate solution at 37° C. for 2 hrs and the absorbance was read at 620 \~655 nm using a spectrophotometer. The signaling pathway that TLR8 activation leads to downstream NF-κB activation has been widely accepted, and therefore similar reporter assay was modified for evaluating TLR8 antagonist.

Q: CCc1nc(N2CCN(Cc3cnc(N4CC5(CNCCO5)C4)nc3)CC2)ccc1-c1cc(C)c(=O)n(C)c1 [Example 1, 5-[2-ethyl-6-[4-[[2-(5-oxa-2,8-diazaspiro[3.5]nonan-2-yl)pyrimidin-5-yl]methyl]piperazin-1-yl]-3-pyridyl]-1,3-dimethyl-pyridin-2-one] was tested. Which IC50 did it give?
A: The IC50 was 0.7 nM.

Q: Which IC50 does the source give for CCc1nc(N2CCN(Cc3ccc(N4CC5(CNCCO5)C4)nc3)CC2)ccc1-c1cc(C)c(=O)n(C)c1 [Example 2, 5-[2-ethyl-6-[4-[[6-(5-oxa-2,8-diazaspiro[3.5]nonan-2-yl)-3 pyridyl]methyl]piperazin-1-yl]-3-pyridyl]-1,3-dimethyl-pyridin-2-one] here?
A: The IC50 was 0.3 nM.

Q: For CCc1nc(N2CCN(Cc3cnc(N4CC(C)(N)C4)nc3)CC2)ccc1-c1cc(C)c(=O)n(C)c1 [Example 3, 5-[6-[4-[[2-(3-amino-3-methyl-azetidin-1-yl)pyrimidin-5-yl]methyl]piperazin-1-yl]-2-ethyl-3-pyridyl]-1,3-dimethyl-pyridin-2-one], which IC50 is on record?
A: The IC50 was 0.3 nM.

Q: Which IC50 does the source give for CCc1nc(N2CCN(Cc3cnc(N4CCOC[C@@H](N)C4)nc3)CC2)ccc1-c1cc(C)c(=O)n(C)c1 [Example 4, 5-[6-[4-[[2-[(6S)-6-amino-1,4-oxazepan-4-yl]pyrimidin-5-yl]methyl]piperazin-1-yl]-2-ethyl-3-pyridyl]-1,3-dimethyl-pyridin-2-one] here?
A: Its IC50 is 0.6 nM.

Q: How did the IC50 turn out when CCc1nc(N2CCN(Cc3ccc(N4CCNCC4)cc3)CC2)ccc1-c1cc(C)c(=O)n(C)c1 [Example 5, 5-[2-ethyl-6-[4-[(4-piperazin-1-ylphenyl)methyl]piperazin-1-yl]-3-pyridyl]-1,3-dimethyl-pyridin-2-one] was run?
A: The IC50 was 0.3 nM.

Q: With Cc1cc(-c2ccc(N3CCN(Cc4cnc(N5CC6(CNCCO6)C5)nc4)CC3)nc2C(C)C)cn(C)c1=O [Example 6, 5-[2-isopropyl-6-[4-[[2-(5-oxa-2,8-diazaspiro[3.5]nonan-2-yl)pyrimidin-5-yl]methyl]piperazin-1-yl]-3-pyridyl]-1,3-dimethyl-pyridin-2-one] as the compound, how does the IC50 read?
A: Its IC50 is 0.3 nM.

Q: For Cc1cc(-c2ccc(N3CCN(Cc4ccc(N5CCNCC5)cn4)CC3)nc2C(C)C)cn(C)c1=O [Example 7, 5-[2-isopropyl-6-[4-[(5-piperazin-1-yl-2-pyridyl)methyl]piperazin-1-yl]-3-pyridyl]-1,3-dimethyl-pyridin-2-one], which IC50 is on record?
A: The IC50 was 0.3 nM.

Q: With Cc1cc(-c2ccc(N3CCN(Cc4cnc(N5CCNCC5)cn4)CC3)nc2C(C)C)cn(C)c1=O [Example 8, 5-[2-isopropyl-6-[4-[(5-piperazin-1-ylpyrazin-2-yl)methyl]piperazin-1-yl]-3-pyridyl]-1,3-dimethyl-pyridin-2-one] as the compound, how does the IC50 read?
A: Its IC50 is 0.3 nM.

Q: How did the IC50 turn out when Cc1cc(-c2ccc(N3CCN(Cc4cnc(N5CCNCC5)nc4)CC3)nc2C(C)C)cn(C)c1=O [Example 9, 5-[2-isopropyl-6-[4-[(2-piperazin-1-ylpyrimidin-5-yl)methyl]piperazin-1-yl]-3-pyridyl]-1,3-dimethyl-pyridin-2-one] was run?
A: Its IC50 is 0.3 nM.

Q: For Cc1cc(-c2ccc(N3CCN(Cc4cnc(N5CC(C)(N)C5)nc4)CC3)nc2C(C)C)cn(C)c1=O [Example 10, 5-[6-[4-[[2-(3-amino-3-methyl-azetidin-1-yl)pyrimidin-5-yl]methyl]piperazin-1-yl]-2-isopropyl-3-pyridyl]-1,3-dimethyl-pyridin-2-one], which IC50 is on record?
A: Its IC50 is 0.3 nM.

Q: With Cc1cc(-c2ccc(N3CCN(Cc4ccc(N5CCNCC5)nc4)CC3)nc2C(C)C)cn(C)c1=O [Example 11, 5-[2-isopropyl-6-[4-[(6-piperazin-1-yl-3-pyridyl)methyl]piperazin-1-yl]-3-pyridyl]-1,3-dimethyl-pyridin-2-one] as the compound, how does the IC50 read?
A: The IC50 was 0.3 nM.

Q: Cc1cc(-c2ccc(N3CCN(Cc4ncc(N5CCNCC5)cn4)CC3)nc2C(C)C)cn(C)c1=O [Example 12, 5-[2-isopropyl-6-[4-[(5-piperazin-1-ylpyrimidin-2-yl)methyl]piperazin-1-yl]-3-pyridyl]-1,3-dimethyl-pyridin-2-one] was tested. Which IC50 did it give?
A: Its IC50 is 0.7 nM.

Q: With Cc1cc(-c2ccc(N3CCN(Cc4ccc(N5CCNCC5)cc4)CC3)nc2C(C)C)cn(C)c1=O [Example 13, 5-[2-isopropyl-6-[4-[(4-piperazin-1-ylphenyl)methyl]piperazin-1-yl]-3-pyridyl]-1,3-dimethyl-pyridin-2-one] as the compound, how does the IC50 read?
A: The IC50 was 0.3 nM.

Q: For Cc1cc(-c2ccc(N3CCN(Cc4cccc(N5CCNCC5)c4)CC3)nc2C(C)C)cn(C)c1=O [Example 14, 5-[2-isopropyl-6-[4-[(3-piperazin-1-ylphenyl)methyl]piperazin-1-yl]-3-pyridyl]-1,3-dimethyl-pyridin-2-one], which IC50 is on record?
A: Its IC50 is 0.3 nM.

Q: For Cc1cc(-c2ccc(N3CCN(c4ccc5c(n4)CCNC5)CC3)nc2C(C)C)cn(C)c1=O [Example 15, 5-[2-isopropyl-6-[4-(5,6,7,8-tetrahydro-1,6-naphthyridin-2-yl)piperazin-1-yl]-3-pyridyl]-1,3-dimethyl-pyridin-2-one], which IC50 is on record?
A: Its IC50 is 2 nM.

Q: With Cc1cc(-c2ccc(N3CCN4CCN(c5ccc(N6CCNCC6)nc5)CC4C3)nc2C(C)C)cn(C)c1=O (stereo not shown) [Example 16, 5-[2-isopropyl-6-[8-(6-piperazin-1-yl-3-pyridyl)-3,4,6,7,9,9a-hexahydro-1H-pyrazino[1,2-a]pyrazin-2-yl]-3-pyridyl]-1,3-dimethyl-pyridin-2-one] as the compound, how does the IC50 read?
A: Its IC50 is 2 nM.

Q: Which IC50 does the source give for Cc1cc(-c2ccc(N3CCN(Cc4ccc(N5CCNCC5)cc4)CC3)nc2C(F)F)cn(C)c1=O [Example 17, 5-[2-(difluoromethyl)-6-[4-[(4-piperazin-1-ylphenyl)methyl]piperazin-1-yl]-3-pyridyl]-1,3-dimethyl-pyridin-2-one] here?
A: The IC50 was 0.3 nM.

Q: How did the IC50 turn out when Cc1cc(-c2ccc(N3CCC(N4CCNCC4)CC3)nc2C(C)C)cn(C)c1=O [Example 18, 5-[2-isopropyl-6-(4-piperazin-1-yl-1-piperidyl)-3-pyridyl]-1,3-dimethyl-pyridin-2-one] was run?
A: Its IC50 is 0.8 nM.

Q: CCc1nc(N2CCN3CCN(c4cnc(N5CC6(CNCCO6)C5)nc4)CC3C2)ccc1-c1cc(C)c(=O)n(C)c1 (stereo not shown) [Example 19, 5-[2-ethyl-6-[2-[2-(5-oxa-2,8-diazaspiro[3.5]nonan-2-yl)pyrimidin-5-yl]-3,4,6,7,9,9a-hexahydro-1H-pyrazino[1,2-a]pyrazin-8-yl]-3-pyridyl]-1,3-dimethyl-pyridin-2-one] was tested. Which IC50 did it give?
A: Its IC50 is 5.9 nM.
